Measurements as given in US20250282828A1, “PEPTIDES FOR THE TREATMENT OF RESPIRATORY INFECTIONS OF VIRAL ORIGIN” (CENTRO DE INGENIERÍA GENÉTICA Y BIOTECNOLOGÍA, priority 2020, published 2025).
pKd: −log10 of the molar value. No end group written: not given here.

How the values were obtained:
[1] = system: SARS-CoV-2; conditions: 96 h, 50 μM
[2] = target: T1, ZIKV E protein (Zika) (Zika virus, UniProt A0A024B7W1); experiment: BIACORE surface plasmon resonance interaction with immobilized peptide; type: binding
T1 construct: the envelope protein of the Zika virus (ZIKV E)
T1 sequence (A0A024B7W1 291-794): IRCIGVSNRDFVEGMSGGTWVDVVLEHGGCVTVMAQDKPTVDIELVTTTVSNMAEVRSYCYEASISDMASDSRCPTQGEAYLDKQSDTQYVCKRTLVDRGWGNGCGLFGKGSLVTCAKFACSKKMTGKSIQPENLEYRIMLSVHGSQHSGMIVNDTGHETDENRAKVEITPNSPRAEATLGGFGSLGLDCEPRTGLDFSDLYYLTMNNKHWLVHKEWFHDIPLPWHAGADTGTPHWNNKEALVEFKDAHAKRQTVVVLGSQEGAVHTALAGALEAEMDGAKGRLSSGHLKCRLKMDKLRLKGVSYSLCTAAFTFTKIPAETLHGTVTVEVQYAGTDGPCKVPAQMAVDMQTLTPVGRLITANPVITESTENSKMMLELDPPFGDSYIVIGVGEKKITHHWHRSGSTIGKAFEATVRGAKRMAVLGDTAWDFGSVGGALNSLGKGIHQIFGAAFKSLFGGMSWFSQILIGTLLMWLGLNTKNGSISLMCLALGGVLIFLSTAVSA

[3] = system: vimentin intermediate filaments; experiment: Immunodetection of vimentin intermediate filaments in MDBK cells; type: cell-based, bovine; conditions: 100 μM, 24 hours
Method: They were then fixed and permeabilized in a solution of acetone:methanol (1:1 V/V) for 10 min at −20° C. and blocked with 1% bovine serum albumin in phosphate buffered saline for 30 min, at 37° C. Vimentin intermediate filaments were detected using a murine anti-vimentin IgG1 monoclonal antibody (4.5 μg/mL) followed by an anti-mouse antibody conjugated to fluorescein isothiocyanate (1/200). Vimentin intermediate filaments (FI) were observed distributed throughout the cytoplasm, from the perinuclear region towards one or both poles of the cell.

[4] = target: T2, NS1-D2 (Dengue) (Dengue virus type 2, UniProt P29990); experiment: BIACORE surface plasmon resonance interaction with immobilized peptide; type: binding, Dengue virus 2
T2 construct: the non-structural protein 1 of the Dengue virus 2 (NS1-D2)
T2 sequence (P29990 776-1127 limits assumed): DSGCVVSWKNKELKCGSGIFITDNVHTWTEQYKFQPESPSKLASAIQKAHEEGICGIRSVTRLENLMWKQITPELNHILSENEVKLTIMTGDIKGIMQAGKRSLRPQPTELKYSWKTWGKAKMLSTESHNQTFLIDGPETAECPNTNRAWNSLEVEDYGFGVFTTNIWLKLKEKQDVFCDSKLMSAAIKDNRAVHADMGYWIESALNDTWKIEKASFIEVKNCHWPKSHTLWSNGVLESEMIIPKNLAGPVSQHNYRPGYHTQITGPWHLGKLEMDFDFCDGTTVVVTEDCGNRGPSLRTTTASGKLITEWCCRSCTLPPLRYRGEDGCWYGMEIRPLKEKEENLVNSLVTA

[5] = target: T3, extracellular domain of the ACE2 receptor (Homo sapiens, UniProt Q9BYF1); experiment: as above; type: binding
T3 construct: the extracellular domain of the ACE2 receptor
T3 sequence (Q9BYF1 18-740): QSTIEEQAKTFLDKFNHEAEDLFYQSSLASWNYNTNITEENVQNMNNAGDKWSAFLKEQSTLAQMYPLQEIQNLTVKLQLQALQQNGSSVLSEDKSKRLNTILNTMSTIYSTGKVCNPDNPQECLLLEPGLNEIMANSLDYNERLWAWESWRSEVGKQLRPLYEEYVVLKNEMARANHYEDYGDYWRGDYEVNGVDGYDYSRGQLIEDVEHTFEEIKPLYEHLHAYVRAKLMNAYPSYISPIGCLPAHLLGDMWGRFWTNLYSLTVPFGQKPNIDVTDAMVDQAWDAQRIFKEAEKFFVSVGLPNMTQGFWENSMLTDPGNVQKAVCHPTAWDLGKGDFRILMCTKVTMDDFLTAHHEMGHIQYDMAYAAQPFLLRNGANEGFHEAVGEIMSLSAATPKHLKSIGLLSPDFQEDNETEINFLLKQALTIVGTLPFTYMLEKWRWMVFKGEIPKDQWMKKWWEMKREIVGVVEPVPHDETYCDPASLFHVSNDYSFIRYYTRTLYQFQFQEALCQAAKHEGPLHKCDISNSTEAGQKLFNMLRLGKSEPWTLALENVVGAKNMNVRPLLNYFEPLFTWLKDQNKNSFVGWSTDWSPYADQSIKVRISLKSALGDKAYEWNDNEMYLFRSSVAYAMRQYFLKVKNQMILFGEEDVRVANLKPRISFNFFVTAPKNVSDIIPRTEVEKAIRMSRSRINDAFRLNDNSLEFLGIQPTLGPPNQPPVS

[6] = target: Protein N (SARS-CoV-2) (Severe acute respiratory syndrome coronavirus 2, UniProt P0DTC9); experiment: as above; type: binding
[7] = target: pAb anti-SEQ ID NO: 1; experiment: as above; type: binding, rabbit
[8] = target: receptor binding-domain of the viral S protein (RBD) (Severe acute respiratory syndrome coronavirus 2, UniProt P0DTC2); experiment: as above; parameters: species or system SARS-CoV-2
[9] = system: capsid protein of the Influenza H1N1 virus; experiment: as above; type: binding
[10] = system: respiratory syncytial virus (RSV); experiment: Respiratory syncytial virus replication in bronchial HAE (RT-qPCR); type: cell-based; conditions: 50 μM, 10 days
[11] = system: Dengue 2 virus; experiment: Dengue 2 virus replication in primary cultures of lung cells (PFU in VeroE6); type: cell-based; conditions: 100 μM, 48 hours
Method: The cultures were treated with the peptides for 2 or 24 hours, at concentrations of 0.01 to 100 μM before viral challenge. The medium was discarded and the cells were infected with Dengue 2 virus, at an MOI of 10 for 2 hours at 37° C. and 5% CO2. The virus was eliminated, a wash was then performed and the cultures were treated again with peptides in DMEM medium, and incubated for 48 hours at 37° C. and 5% CO2. Subsequently, the cultures were collected to assess viral performance on VeroE6 cells. For this, the cells were seeded in 24-well plates and when they reached confluence they were infected with serial 10-fold dilutions of the supernatants, incubated for 1 hour at 37° C. and 5% CO2. Next, a wash was carried out with PBS, and a layer of agar in 2× DMEM (1:1) added. The layer was allowed to solidify and incubated for 48 hours at 37° C. 5% CO2. The plates were stained with crystal violet, for the determination of the number of PFUs. The peptides inhibited between 68 and 88% of viral replication (Table 5).

[12] = system: SARS-CoV-2; conditions: 72 h, 100 μM

RVTQMNLNDRLASLYDKV [SEQ ID NO: 1]
Inhibition % [1]: 83.3%
pKd [2]: 5.80
Rmax [2]: 2.11 × 10^4 RU
interaction [2]: showed interaction
kd [2]: 0.00154 s⁻¹
kon ([2]; read-out: ka): 965 M⁻¹ s⁻¹
damage to cell integrity after treatment [3]: no damage to cell integrity was observed
pKd [4]: 6.11
Rmax [4]: 1.86 RU
interaction [4]: showed interaction
kd [4]: 1.02e-05 s⁻¹
kon ([4]; read-out: ka): 13.3 M⁻¹ s⁻¹
interaction [5]: neither the RBD nor the ACE2 peptide interact
interaction (signal RU) ([6]; 10-200 nM): significant increase in signal
pKd ([6]; analyte 10-200 nM): 8.45
kd ([6]; analyte 10-200 nM): 0.000972 s⁻¹
Rmax ([6]; analyte 10-200 nM, biotinylated peptide on SA chip): 329 RU
kon ([6]; analyte 10-200 nM, read-out: ka): 271000 M⁻¹ s⁻¹
pKd [7]: 6.94
ka [7]: 2750 M⁻¹ s⁻¹
kd [7]: 0.000318 s⁻¹
interaction [8]: neither the RBD nor the ACE2 peptide interact
pKd [9]: 6.11
interaction [9]: showed interaction
Sincitial respiratory virus Inhib. % [10]: 80%
Dengue 2 Inhib. % [11]: 81%
Bronchial HAE Inhibition % [12]: 84%
Nasal HAE Inhibition % [12]: 74%
